Consider 4 molecules from patent publication US20240210412A1, “SULFONYL-TRIAZOLE COMPOUNDS USEFUL AS LIGANDS AND INHIBITORS OF PROSTAGLANDIN REDUCTASE 2” (University of Virginia Patent Foundation, priority 2021, published 2024).

Holding throughout (experiment): SILAC LC-MS ABPP
Format in all cases: cell-based
Holding throughout (conditions): 25 μM 2 h, live DM93 cells

The target of one assay is T1, P25205 (Homo sapiens, UniProt P25205).
T1 construct: Probe-modified proteins from the soluble fraction were conjugated to a desthiobiotin-azide tag; endogenous in cells; host or cells: DM93 (SILAC)
T1 sequence (P25205 1-808): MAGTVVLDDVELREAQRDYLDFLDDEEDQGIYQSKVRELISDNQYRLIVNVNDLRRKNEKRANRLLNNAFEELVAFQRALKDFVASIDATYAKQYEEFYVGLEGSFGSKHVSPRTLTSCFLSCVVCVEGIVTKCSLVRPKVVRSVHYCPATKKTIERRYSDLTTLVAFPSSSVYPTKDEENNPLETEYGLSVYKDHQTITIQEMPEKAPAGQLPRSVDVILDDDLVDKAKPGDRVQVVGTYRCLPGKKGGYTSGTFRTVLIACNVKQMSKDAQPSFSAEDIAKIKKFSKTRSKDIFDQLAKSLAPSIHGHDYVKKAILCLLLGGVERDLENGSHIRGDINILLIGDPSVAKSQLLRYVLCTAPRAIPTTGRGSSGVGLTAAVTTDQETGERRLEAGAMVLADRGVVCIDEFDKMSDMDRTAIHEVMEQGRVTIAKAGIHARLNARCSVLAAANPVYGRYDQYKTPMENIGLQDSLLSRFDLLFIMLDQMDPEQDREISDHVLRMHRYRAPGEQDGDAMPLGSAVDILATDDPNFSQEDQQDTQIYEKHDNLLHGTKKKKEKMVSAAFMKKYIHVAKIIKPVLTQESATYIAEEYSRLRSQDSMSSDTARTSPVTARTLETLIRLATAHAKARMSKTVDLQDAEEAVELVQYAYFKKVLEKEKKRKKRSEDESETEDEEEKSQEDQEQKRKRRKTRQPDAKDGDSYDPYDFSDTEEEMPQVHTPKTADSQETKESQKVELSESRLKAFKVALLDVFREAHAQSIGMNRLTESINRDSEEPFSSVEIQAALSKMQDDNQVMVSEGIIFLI
How it is done: (§1) Cells were grown to 90-95% confluence before being washed once with warm, sterile DPBS (1×, 5 mL), followed by addition of 10 mL of serum-free media (supplemented with 1% L-glutamine) containing either DMSO or SuTEx fragment (in DMSO) was added. Light cells were treated with DMSO vehicle while the heavy cells were treated with DMSO or SuTEx fragment (in DMSO) and incubated for 2 hrs. After 2 hrs, the cells were treated with SuTEx alkyne probe (HHS475, 10 μL of 1000× DMSO stock) and incubated for an additional 2 hrs. The media was aspirated and cells washed with cold PBS (5 mL) and harvested. Cells were spun at 500×g for 5 min at 4° C. followed by removal of supernatant. Pellets were resuspended in 1 mL of cold DPBS and spun at 1,400×g for 3 min at 4° C. followed by removal of supernatant. The cells were lysed in PBS by sonication and fractionated (100,000×g, 45 min, 4° C.).The light and heavy soluble fractions were diluted to 2.3 mg/mL in PBS and 432 μL were used for analysis (1 mg total protein). The probe-modified proteomes were conjugated to desthiobiotin-PEG3-azide (10 μl of 10 mM stock in DMSO; 200 μM final concentration) using TCEP (10 μl of fresh 50 mM stock in water, 1 mM final concentration), TBTA ligand (33 μl of a 1.7 mM 4:1 t-butanol/DMSO stock, 100 μM final concentration) and CuSO4 (10 μl of 50 mM stock, 1 mM final concentration). Samples were vortexed to mix and incubated for 1 hr at room temperature. The heavy and light proteomes were mixed 1:1 and the subsequent steps, including LC-MS/MS data analysis, were performed as previously described^[8a].
(§2) Coupling cell-based screens with chemical proteomics can facilitate the identification of target protein and binding sites that engage and are irreversibly modified by covalent ligands^[12]. In these assays, covalent ligands block SuTEx activity-based probe (ABP) labeling at protein sites, and the competition of probe labeling can be used to quantify potency and selectivity across the proteome^[10a]. To facilitate quantitative chemical proteomics, DM93 melanoma cells were cultured using stable isotopic labeling by amino acids in cell culture (SILAC)^[13]. Cells cultured in “light” media were treated with dimethyl sulfoxide (DMSO) vehicle while cells cultured in “heavy” media were treated with SuTEx ligand (25 μM, 2 hours, 37° C.). Next, cells were treated with HHS-475 probe (100 μM, 2 hours, 37° C.) followed by lysis and processing of proteomes for analysis. Probe-modified proteins from the soluble fraction were conjugated to a desthiobiotin-azide tag by copper-catalyzed azide-alkyne cycloaddition (CuAAC)^[14] followed by mixing of the light and heavy proteomes. The combined proteomes were digested with trypsin protease to produce probe-modified peptides, followed by enrichment and purification by avidin affinity chromatography. Probe-modified peptides were resolved, identified, and quantified by high-resolution liquid chromatography-tandem mass spectrometry (LC-MS/MS). Resultant data were analyzed as previously described^[8a, 10a]. Table 2, below, lists sites of modification targeted by sulfonyl-triazole compounds HHS-0101, HHS-0201, HHS-0301, HHS-0401, and HHS-0701. The format of the table is as follows: protein Uniprot accession number (see uniprot.org); tyrosine site (amino acid position) modified; treatment (sulfonyl-triazole compound identification number, followed by Y (where if multiple compounds modify the same site, the compounds are separated by vertical lines).

The next assay has as its target T2, Q96AE4 (Homo sapiens, UniProt Q96AE4).
T2 construct: endogenous in cells; host or cells: DM93 cells (SILAC), treated live; soluble proteome analysed
On the procedure: as §1, §2

For another assay, the target named is T3, P11216 (Homo sapiens, UniProt P11216).
T3 construct: endogenous in cells; host or cells: DM93 cells (SILAC)
T3 sequence (P11216 whole entry): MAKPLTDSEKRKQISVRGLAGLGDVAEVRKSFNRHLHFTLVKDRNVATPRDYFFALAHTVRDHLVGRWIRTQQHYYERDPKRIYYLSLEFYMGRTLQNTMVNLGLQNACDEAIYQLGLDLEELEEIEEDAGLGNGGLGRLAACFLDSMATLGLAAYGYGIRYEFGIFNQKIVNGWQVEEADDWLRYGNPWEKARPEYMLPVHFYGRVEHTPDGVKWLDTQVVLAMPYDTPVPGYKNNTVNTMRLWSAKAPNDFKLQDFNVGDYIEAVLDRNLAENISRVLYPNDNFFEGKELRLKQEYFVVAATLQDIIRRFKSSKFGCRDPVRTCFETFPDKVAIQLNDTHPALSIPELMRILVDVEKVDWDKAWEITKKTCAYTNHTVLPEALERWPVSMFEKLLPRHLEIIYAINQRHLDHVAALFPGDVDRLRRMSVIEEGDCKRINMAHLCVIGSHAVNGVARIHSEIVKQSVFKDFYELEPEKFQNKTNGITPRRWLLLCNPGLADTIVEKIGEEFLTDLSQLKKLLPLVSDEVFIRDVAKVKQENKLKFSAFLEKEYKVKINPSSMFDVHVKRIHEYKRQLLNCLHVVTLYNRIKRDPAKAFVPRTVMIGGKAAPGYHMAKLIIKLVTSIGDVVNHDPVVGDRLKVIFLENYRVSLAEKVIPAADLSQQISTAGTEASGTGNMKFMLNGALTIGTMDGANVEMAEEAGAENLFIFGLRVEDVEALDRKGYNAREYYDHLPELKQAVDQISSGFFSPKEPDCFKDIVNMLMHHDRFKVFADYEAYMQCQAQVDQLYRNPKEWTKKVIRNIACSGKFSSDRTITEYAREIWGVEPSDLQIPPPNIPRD
On the procedure: as §1, §2

T2 sequence (Q96AE4 whole entry): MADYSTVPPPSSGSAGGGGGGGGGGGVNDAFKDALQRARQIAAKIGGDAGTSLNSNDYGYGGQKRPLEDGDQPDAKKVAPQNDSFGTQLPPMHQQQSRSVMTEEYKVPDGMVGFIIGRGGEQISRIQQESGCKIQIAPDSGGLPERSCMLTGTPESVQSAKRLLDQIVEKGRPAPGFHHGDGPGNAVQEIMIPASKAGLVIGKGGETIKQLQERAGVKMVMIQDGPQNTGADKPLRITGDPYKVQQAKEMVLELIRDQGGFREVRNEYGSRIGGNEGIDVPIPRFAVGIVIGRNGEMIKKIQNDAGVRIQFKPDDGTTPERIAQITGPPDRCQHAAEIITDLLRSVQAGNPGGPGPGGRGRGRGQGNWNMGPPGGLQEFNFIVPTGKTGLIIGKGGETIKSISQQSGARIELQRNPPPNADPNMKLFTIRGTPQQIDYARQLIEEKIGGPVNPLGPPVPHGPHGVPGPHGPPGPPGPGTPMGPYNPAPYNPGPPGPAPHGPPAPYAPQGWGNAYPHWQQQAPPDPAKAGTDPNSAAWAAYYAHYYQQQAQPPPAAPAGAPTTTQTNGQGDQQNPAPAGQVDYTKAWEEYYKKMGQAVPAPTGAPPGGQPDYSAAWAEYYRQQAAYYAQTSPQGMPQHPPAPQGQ

`O=C(c1ccc(S(=O)(=O)n2cncn2)cc1)N1CCC(c2ccccc2)CC1` [HHS-0701, (4-((1H-1,2,4-triazol-1-yl)sulfonyl)phenyl)(4-phenylpiperidin-1-yl)methanone]: on P25205, the “liganded tyrosine site 159” value was “HHS0701.Y (tyrosine sites that showed >80% reductions (SR >5) in probe labeling in cells treated with compounds (liganded sites))” and the “liganded tyrosine site 188” value is “HHS0701.Y (tyrosine sites that showed >80% reductions (SR >5) in probe labeling in cells treated with compounds (liganded sites))”. Moreover, the “liganded tyrosine site 619” value at Q96AE4 was “HHS0701.Y (tyrosine sites that showed >80% reductions (SR >5) in probe labeling in cells treated with compounds (liganded sites))”.

Consider `O=C(NC1CCCCC1)c1ccc(S(=O)(=O)n2cncn2)cc1` [HHS-0301, 4-((1H-1,2,4-triazol-1-yl)sulfonyl)-N-cyclohexylbenzamide], for which the “liganded tyrosine site 147” value on P25205 is on record as “HHS0301.Y (tyrosine sites that showed >80% reductions (SR >5) in probe labeling in cells treated with compounds (liganded sites))”.

As for `O=C(NCC1CC1)c1ccc(S(=O)(=O)n2cncn2)cc1` [HHS-0201, 4-((1H-1,2,4-triazol-1-yl)sulfonyl)-N-(cyclopropylmethyl)benzamide], the “liganded tyrosine site 204” value at P11216 is “HHS0201.Y (tyrosine sites that showed >80% reductions (SR >5) in probe labeling in cells treated with compounds (liganded sites))”. Regarding `O=C(NC1CC1)c1ccc(S(=O)(=O)n2cncn2)cc1` [HHS-0101, 4-((1H-1,2,4-triazol-1-yl)sulfonyl)-N-cyclopropylbenzamide], on P11216, the “liganded tyrosine site 473” value is listed as “HHS0101.Y (tyrosine sites that showed >80% reductions (SR >5) in probe labeling in cells treated with compounds (liganded sites))”. Besides, the “liganded tyrosine site 438” value at Q96AE4 is “HHS0101.Y (tyrosine sites that showed >80% reductions (SR >5) in probe labeling in cells treated with compounds (liganded sites))”.
